Measured values from ChEMBL document CHEMBL1240362, “Intrapulmonary pharmacokinetics of S-013420, a novel bicyclolide antibacterial, in healthy Japanese subjects” (Antimicrob Agents Chemother, 2010).
Values after ≈ are worked out from the molar mass of the structure shown.

How the values were obtained:
Assay type in all cases: functional
Streptococcus pyogenes = assay: Antimicrobial activity against Streptococcus pyogenes
Staphylococcus aureus = assay: Antimicrobial activity against methicillin susceptible Staphylococcus aureus
Streptococcus pneumoniae = assay: Antimicrobial activity against Streptococcus pneumoniae
Haemophilus influenzae = assay: Antimicrobial activity against Haemophilus influenzae

Row | SMILES | MIC90 (Streptococcus pyogenes) [µg/mL] | MIC90 (Staphylococcus aureus) [µg/mL] | MIC90 (Streptococcus pneumoniae) [µg/mL] | MIC90 (Streptococcus pneumoniae; Streptococcus pneumoniae, read-out: MIC90) [µg/mL] | MIC90 (Haemophilus influenzae) [µg/mL]
1 | CC[C@H]1OC(=O)[C@H](C)[C@@H](O[C@H]2C[C@@](C)(OC)[C@@H](O)[C@H](C)O2)[C@H](C)[C@@H](O[C@@H]2O[C@H](C)C[C@H](N(C)C)[C@H]2O)[C@](C)(O)C[C@@H](C)CN(C)[C@H](C)[C@@H](O)[C@]1(C)O [AZITHROMYCIN] | 1 (≈ 1.34 µM) | 1 (≈ 1.34 µM) | 1 (≈ 1.34 µM) | – | –
2 | CC[C@H]1OC(=O)[C@H](C)[C@@H](O[C@H]2C[C@@](C)(OC)[C@@H](O)[C@H](C)O2)[C@H](C)[C@@H](O[C@@H]2O[C@H](C)C[C@H](N(C)C)[C@H]2O)[C@](C)(OC)C[C@@H](C)C(=O)[C@H](C)[C@@H](O)[C@]1(C)O [CLARITHROMYCIN] | 1 (≈ 1.34 µM) | 1 (≈ 1.34 µM) | – | 1 (≈ 1.34 µM) | –
3 | CC[C@H]1OC(=O)[C@H](C)C(=O)[C@H](C)[C@@H](O[C@@H]2O[C@H](C)C[C@H](N(C)C)[C@H]2O)[C@](C)(OC)C[C@@H](C)C(=O)[C@H](C)[C@H]2N(CCCCn3cnc(-c4cccnc4)c3)C(=O)O[C@]12C [TELITHROMYCIN] | – | – | – | – | 4 (≈ 4.93 µM)
